The results in this text go back to PubChem BioAssay (NCI).

Each structure is given as a SMILES string.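 Interpolation was linear, between the two tested concentrations surrounding the appropriate level; five concentrations were tested over 48 hours in 96-well plates. GI50: concentration for 50% inhibition of growth. The concentration for full growth arrest is given as TGI.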

Among the test systems are OVCAR-8 ovarian; UACC-62 melanoma; MDA-MB-231 breast; SN12C renal; CCRF-CEM leukemia; SW-620 colon; SF-539 CNS; NCI-H23 lung; IGROV1 ovarian; NCI-H226 lung.
Common to all, as to test: inhibition of tumour cell growth, NCI panel, 48 h

For `ClCC#CCSc1ncnc2c1ncn2CC#CCCl`, the GI50 is 1.78 µM in the test with OVCAR-8 ovarian; 1.17 µM in the test with UACC-62 melanoma; 1.5 µM in the test on MDA-MB-231 breast; 1.55 µM with SN12C renal; 1800 nM with CCRF-CEM leukemia; 2.17 µM with SW-620 colon. Also, the figures for the GI50 in the test on SF-539 CNS, in the test with NCI-H23 lung and in the test with IGROV1 ovarian were 2.1 µM, 1490 nM and 1.03 µM, respectively. Further, the TGI with OVCAR-8 ovarian turned out to be 5.24 µM; in the test on UACC-62 melanoma it was 2.66 µM; in the test with MDA-MB-231 breast it was 3.55 µM; in the test on SN12C renal, 3.65 µM; with CCRF-CEM leukemia, 15.2 µM; in the test with SW-620 colon it was 4.79 µM. Besides, the TGI with SF-539 CNS came to 4.21 µM; in the test on NCI-H23 lung it was 3.46 µM; with IGROV1 ovarian, 3.34 µM.
On to `O=C1c2ccn(CCCCN3CCC(O)CC3)c2C(=O)c2c1c(O)c1ccccc1c2O`, for which the GI50 in the test on OVCAR-8 ovarian is 25.6 µM; in the test on UACC-62 melanoma, 2.13 µM; with MDA-MB-231 breast, 13.3 µM; with SN12C renal, 15.2 µM; in the test with SW-620 colon, 4.48 µM; in the test on NCI-H226 lung, 23.7 µM. Moreover, the GI50 in the test on SF-539 CNS was 43.8 µM; in the test with NCI-H23 lung it was 1970 nM; with IGROV1 ovarian, 2.53 µM. The TGI in the test with OVCAR-8 ovarian was 75.3 µM; in the test with UACC-62 melanoma, 5.36 µM; in the test on MDA-MB-231 breast, 38.3 µM; in the test on SN12C renal it was 34.9 µM; in the test with SW-620 colon, above 100 µM; in the test on NCI-H226 lung it was 60.2 µM. The TGI was above 100 µM with SF-539 CNS, 3.84 µM in the test on NCI-H23 lung and above 100 µM in the test with IGROV1 ovarian.
As for `CCOC(=O)/C(C#N)=C/Nc1ccc(-c2nc3ccccc3[nH]2)cc1`, the GI50 in the test on OVCAR-8 ovarian was above 100 µM; in the test on UACC-62 melanoma, 18.7 µM; with MDA-MB-231 breast, 18.1 µM; in the test with SN12C renal, 19.5 µM; in the test on SW-620 colon, 54.1 µM; with NCI-H226 lung it was above 100 µM. For the same molecule, the GI50 in the test on SF-539 CNS is 21.5 µM; in the test on IGROV1 ovarian it was 22.7 µM. Further, the TGI in the test with OVCAR-8 ovarian was above 100 µM; in the test on UACC-62 melanoma, 62.4 µM; in the test with MDA-MB-231 breast, 45.1 µM; in the test with SN12C renal, 55.6 µM; with SW-620 colon, above 100 µM; in the test with NCI-H226 lung, above 100 µM. Also, the TGI in the test on SF-539 CNS is 40.9 µM; in the test with IGROV1 ovarian it was above 100 µM.
For the molecule `N#Cc1cccc(OCc2ccccc2COc2cccc(C#N)c2)c1`, the GI50 with OVCAR-8 ovarian was 55.9 µM; in the test with UACC-62 melanoma, 18.3 µM; in the test on MDA-MB-231 breast, 7.83 µM; with SN12C renal, 19 µM; with SW-620 colon, above 100 µM; with NCI-H226 lung, 29.1 µM. The GI50 in the test with SF-539 CNS was 18.8 µM; in the test with NCI-H23 lung it was 36700 nM; with IGROV1 ovarian, above 100 µM. Further, the TGI was above 100 µM with OVCAR-8 ovarian; 73 µM with UACC-62 melanoma; 47.5 µM in the test on MDA-MB-231 breast; 73.1 µM in the test on SN12C renal; above 100 µM with SW-620 colon; 88.1 µM in the test with NCI-H226 lung. The TGI was 35.5 µM in the test on SF-539 CNS, above 100 µM with NCI-H23 lung and above 100 µM in the test with IGROV1 ovarian.
Turning to `O=C(CC(=O)c1ccccc1)c1ccccc1`, the GI50 was 20.4 µM in the test on OVCAR-8 ovarian; 21.7 µM with UACC-62 melanoma; above 100 µM with MDA-MB-231 breast; 52.8 µM in the test with SN12C renal; 13.2 µM in the test on SW-620 colon; 37.2 µM in the test with NCI-H226 lung. Besides, the figures for the GI50 in the test on SF-539 CNS, in the test on NCI-H23 lung and in the test on IGROV1 ovarian were 4.5 µM, 13600 nM and 19.9 µM, respectively. Moreover, the TGI in the test on OVCAR-8 ovarian was above 100 µM; in the test on UACC-62 melanoma, 77.5 µM; with MDA-MB-231 breast, above 100 µM; in the test on SN12C renal it was above 100 µM; in the test on SW-620 colon, above 100 µM; with NCI-H226 lung, above 100 µM. The TGI with SF-539 CNS is 16.2 µM; in the test on NCI-H23 lung, 43.4 µM; in the test on IGROV1 ovarian, above 100 µM.
Consider `COc1ccc(/C=N/N=C(\[O-])c2ccncc2)cc1F.COc1ccc(/C=N\N=C(/[O-])c2ccncc2)cc1F.[Cu+2]`, for which the GI50 with OVCAR-8 ovarian is 13.8 µM; with UACC-62 melanoma, 23.8 µM; in the test with MDA-MB-231 breast it was 32.4 µM; in the test with SN12C renal it was 40.4 µM; in the test with CCRF-CEM leukemia, 22000 nM; in the test on SW-620 colon, 35.7 µM. The GI50 with SF-539 CNS was 17.8 µM; with NCI-H23 lung, 25400 nM; with IGROV1 ovarian it was 17.6 µM. Also, the TGI in the test on OVCAR-8 ovarian was 27.5 µM; with UACC-62 melanoma, 52.8 µM; in the test with MDA-MB-231 breast, above 100 µM; in the test on SN12C renal, above 100 µM; in the test with CCRF-CEM leukemia, 68.9 µM; with SW-620 colon it was above 100 µM. The TGI amounted to 37.1 µM in the test with SF-539 CNS, 58.2 µM in the test on NCI-H23 lung and 40.2 µM in the test with IGROV1 ovarian.
Regarding `CN1CCN(CCOc2ccc(-c3cnc4c(-c5ccc(F)cc5)cnn4c3)cc2)CC1`, the GI50 was 2.14 µM in the test with OVCAR-8 ovarian; 1.78 µM with UACC-62 melanoma; 1.57 µM in the test with MDA-MB-231 breast; 1.69 µM with SN12C renal; 1550 nM with CCRF-CEM leukemia; 1.89 µM in the test on SW-620 colon. Besides, the GI50 is 1.27 µM in the test with SF-539 CNS, 1730 nM in the test on NCI-H23 lung and 1.63 µM with IGROV1 ovarian. Also, the TGI with OVCAR-8 ovarian was determined as 5.08 µM; in the test on UACC-62 melanoma, 3.36 µM; in the test with MDA-MB-231 breast it was 3.07 µM; in the test on SN12C renal, 3.23 µM; with CCRF-CEM leukemia it was 3.82 µM; in the test on SW-620 colon, 3.56 µM. The TGI in the test on SF-539 CNS is 2.57 µM; in the test on NCI-H23 lung, 3.25 µM; with IGROV1 ovarian it was 3.3 µM.
In the case of `COC(=O)[C@]12CC[C@@H](C)[C@H](C)[C@@H]1C1=CC[C@@H]3[C@@]4(C)CC(=O)[C@H](OC(=O)c5ccco5)[C@@]5(C)COC(=C45)C[C@@]3(C)[C@]1(C)CC2`, the GI50 was 2.47 µM with OVCAR-8 ovarian; 5.11 µM in the test with MDA-MB-231 breast; 767 nM in the test with CCRF-CEM leukemia; 0.902 µM in the test with SW-620 colon; 83.1 µM in the test on NCI-H226 lung; 7.56 µM with SF-539 CNS. For the same molecule, the GI50 in the test with NCI-H23 lung was 936 nM; in the test on IGROV1 ovarian, 3.71 µM. Besides, the TGI in the test on OVCAR-8 ovarian, in the test on MDA-MB-231 breast, in the test on CCRF-CEM leukemia, in the test with SW-620 colon, with NCI-H226 lung and with SF-539 CNS was above 100 µM each time. In addition, the TGI with NCI-H23 lung and with IGROV1 ovarian was above 100 µM each time.
As for `NS(=O)(=O)c1ccc(NC(=O)Nc2ccccc2F)cc1`, the TGI in the test with OVCAR-8 ovarian, in the test with UACC-62 melanoma, in the test on MDA-MB-231 breast, in the test on SN12C renal, in the test on SW-620 colon and with NCI-H226 lung was above 100 µM each time. The TGI in the test on SF-539 CNS, in the test on NCI-H23 lung and in the test on IGROV1 ovarian was above 100 µM in each case.
